Test results as given in paper PMC10993450, “New benzimidazole derivative compounds with in vitro fasciolicidal properties” (Parasites & Vectors, 2024).
Values joined by “and” are separate entries in the source; they are usually repeats but may differ in a detail not shown here. Equal entries are not always repeated.

system: Fasciola hepatica eggs (ABZ-susceptible isolate); assay: Egg hatch test (EHT), ABZ-susceptible isolates; assay type: cell-based; settings: 10 µM; ABZ-susceptible isolate; mean ± SEM
Method: Eggs were recovered from gallbladders of cattle naturally infected with F. hepatica at the municipal slaughterhouse of León (Spain). For this, the bile of the gallbladders was filtered through sieves of different diameter size pores (500, 150, and 20 µm) using pressurized tap water. Eggs retained on the 20 µm pore size sieve were collected and stored at 4 °C in darkness until required within a maximum period of 2 months.
The susceptibility of the isolates to ABZ was confirmed by the egg hatch test (EHT) using an ABZ discriminant dose (DD) of 0.5 µM [23]. The technique is described in more detail below.
The in vitro anthelmintic activity of a total of 70 BZDs was initially tested on F. hepatica eggs recovered from gallbladders of cattle naturally infected with ABZ-susceptible isolates. The first screening was performed using a fixed concentration of 50 µM. […] Therefore, only BZDs with ovicidal activities over 80% progressed to the next assays at 10 µM. […] At this last concentration, the ovicidal effect of ABZ, ABZSO, and OXF was also evaluated.
(§1) The in vitro EHT described in the current study was based on previous studies. Briefly, 100–120 eggs were incubated in 990 µL of water and 10 μL of each working solution at 25 °C in the dark for a period of 12 h. After incubation, eggs were gently washed with tap water three times to facilitate compound removal and kept in darkness at 25 °C for 14 days. After this period, eggs were exposed to light for 2 h to stimulate the hatching of eggs. Then, hatched and unhatched eggs were evaluated and counted using an optical microscope. The term “hatched eggs” includes both hatched and embryonated eggs. Negative control eggs were incubated with 10 μL of DMSO in 990 μL of water, reaching a maximum DMSO concentration of 1% (v/v), while ABZ at 0.5 µM was used as positive control. Each compound at a specific concentration was tested in triplicate in the same EHT and repeated at least two different days.
With the aim to characterize the susceptibility of isolates from naturally infected cattle, the drug used in the EHT was ABZ, tested at a discriminant dose of 0.5 μM. Drug susceptibility is assumed when the ovicidal activity is over 70%, resistance when is lower than 40%, and a suspicion of resistance when activity is between these values at 0.5 μM.
(§2) The efficacy of each compound and drug was calculated as its ovicidal activity following the formula below: Ovicidal activity%=100×%eggs hatched in negative control-%egg hatched after drug incubation/%egg hatched in control.

Row | Structure (SMILES) | % Ovicidal activity
1 | Cc1ccc2[nH]c(-c3ccc(Cl)cc3)nc2c1 [BZD05] | around 50%
2 | COc1ccc(-c2nc3cc(OC)ccc3[nH]2)cc1 [BZD20] | 24.59 ± 05.71%

same assay, conditions: 50 µM; ABZ-susceptible isolate; mean ± SEM

Row | Structure (SMILES) | % Ovicidal activity
3 | COc1ccc(-c2nc3ccccc3[nH]2)cc1 [BZD01] | 20.07 ± 9.32%
4 | Clc1ccc(-c2nc3ccccc3[nH]2)cc1 [BZD02] | 09.55 ± 5.68%
5 | Brc1ccc(-c2nc3ccccc3[nH]2)cc1 [BZD03] | 01.93 ± 1.11%
6 | Cc1ccc2[nH]c(-c3ccc(Cl)cc3)nc2c1 [BZD05] | 35.59 ± 9.00%
7 | Cc1ccc(C)c(-c2nc3cc(C)ccc3[nH]2)c1 [BZD06] | 02.26 ± 1.30% and 04.63 ± 2.27%
8 | COc1ccc(-c2nc3cc(C)ccc3[nH]2)cc1[N+](=O)[O-] [BZD07] | 07.13 ± 3.45%
9 | O=[N+]([O-])c1ccc(-c2nc3cc(Cl)ccc3[nH]2)cc1 [BZD10] | 23.55 ± 8.06%
10 | Cc1ccc(C)c(-c2nc3cc(Cl)ccc3[nH]2)c1 [BZD11] | 03.28 ± 1.45%
11 | COc1ccc(-c2nc3cc(Cl)ccc3[nH]2)cc1[N+](=O)[O-] [BZD12] | 00.55 ± 9.45%
12 | COc1ccc(-c2nc3cc(Cl)ccc3[nH]2)cc1N [BZD13] | 04.40 ± 1.38%
13 | COc1ccc(-c2nc3cc([N+](=O)[O-])ccc3[nH]2)cc1 [BZD14] | 15.55 ± 7.35%
14 | Cc1ccc(C)c(-c2nc3cc([N+](=O)[O-])ccc3[nH]2)c1 [BZD16] | 00.33 ± 0.33%
15 | COc1ccc(-c2nc3cc([N+](=O)[O-])ccc3[nH]2)cc1[N+](=O)[O-] [BZD17] | 00.00 ± 0.00%
16 | COc1ccc(-c2nc3cc(N)ccc3[nH]2)cc1 [BZD18] | 02.82 ± 1.42%
17 | COc1ccc(-c2nc3cc(NC(=O)c4ccccn4)ccc3[nH]2)cc1 [BZD19] | 13.61 ± 3.64%
18 | COc1ccc2[nH]c(-c3ccc(Cl)cc3)nc2c1 [BZD21] | 06.88 ± 6.88%
19 | COc1ccc2nc(-c3ccc(Br)cc3)[nH]c2c1 [BZD22] | 67.47 ± 5.64%
20 | COc1ccc(-c2nc3cc(C)c(C)cc3[nH]2)cc1 [BZD23] | 59.08 ± 3.79%
21 | COc1ccc(-c2nc3cc(Cl)c(Cl)cc3[nH]2)cc1 [BZD24] | 16.09 ± 6.50%
22 | Cc1ccc(S(=O)(=O)Nc2nc3cc(C)ccc3[nH]2)cc1 [BZD25] | 3.94 ± 1.37%
23 | Cc1ccc2[nH]c(NS(=O)(=O)c3ccc4ccccc4c3)nc2c1 [BZD26] | 2.23 ± 0.99%
24 | COc1ccc(CNc2nc3cc(C)ccc3[nH]2)c(OC)c1OC [BZD28] | 01.02 ± 0.62%
25 | Cc1ccc2[nH]c(NCc3ccc4ccccc4c3)nc2c1 [BZD29] | 04.65 ± 1.98%

Row | Structure (SMILES) | % Ovicidal activity
26 | COc1ccc(CNc2nc3cc(Cl)ccc3[nH]2)cc1 [BZD33] | 05.52 ± 2.49%
27 | COc1cc(CNc2nc3cc(Cl)ccc3[nH]2)cc(OC)c1OC [BZD34] | 00.39 ± 0.38%
28 | Clc1ccc2[nH]c(NCc3ccco3)nc2c1 [BZD35] | 37.65 ± 13.55%
29 | COc1ccc2[nH]c(NCc3ccccc3)nc2c1 [BZD36] | 70.94 ± 2.32%
30 | COc1ccc(CNc2nc3cc(OC)ccc3[nH]2)cc1 [BZD37] | 08.66 ± 1.86%
31 | COc1ccc2[nH]c(NCc3cccs3)nc2c1 [BZD40] | 17.73 ± 5.12%
32 | COc1ccc(CNc2nc3cc(C)c(C)cc3[nH]2)cc1 [BZD41] | 05.76 ± 3.12%
33 | COc1cc(CNc2nc3cc(C)c(C)cc3[nH]2)cc(OC)c1OC [BZD42] | 10.73 ± 3.26%
34 | Clc1cc2nc(NCc3ccccc3)[nH]c2cc1Cl [BZD43] | 55.36 ± 3.12%
35 | COc1cc(CNc2nc3cc(Cl)c(Cl)cc3[nH]2)cc(OC)c1OC [BZD45] | 00.91 ± 0.61%
36 | COc1ccc(C(=O)Nc2nc3cc(C)ccc3[nH]2)cc1 [BZD48] | 09.72 ± 2.50%
37 | Cc1ccc2[nH]c(NC(=O)c3cc([N+](=O)[O-])ccc3Cl)nc2c1 [BZD50] | 07.62 ± 2.71%
38 | COc1cc(OC)cc(C(=O)Nc2nc3cc(C)ccc3[nH]2)c1 [BZD51] | 05.05 ± 2.51%
39 | COc1cc(C(=O)Nc2nc3cc(C)ccc3[nH]2)cc(OC)c1OC [BZD52] | 02.50 ± 1.26%
40 | Cc1ccc2[nH]c(NC(=O)Cc3ccc4ccccc4c3)nc2c1 [BZD53] | 01.07 ± 0.62%
41 | Cc1ccc2[nH]c(NC(=O)Cc3cccs3)nc2c1 [BZD54] | 07.20 ± 3.47%
42 | COc1ccc(C(=O)Nc2nc3cc(Cl)ccc3[nH]2)cc1 [BZD57] | 60.39 ± 10.70%
43 | COc1ccc(C(=O)Nc2nc3cc(OC)ccc3[nH]2)cc1 [BZD60] | 01.08 ± 0.79%
44 | Cc1cc2nc(NC(=O)c3cccc(Cl)c3)[nH]c2cc1C [BZD65] | 01.61 ± 0.82%
45 | COc1ccc(C(=O)Nc2nc3cc(C)c(C)cc3[nH]2)cc1 [BZD66] | 00.26 ± 0.25%
46 | O=C(Nc1nc2cc(Cl)c(Cl)cc2[nH]1)c1ccccc1 [BZD67] | 03.33 ± 2.51%
47 | COc1ccc(C(=O)Nc2nc3cc(Cl)c(Cl)cc3[nH]2)cc1 [BZD70] | 02.75 ± 1.16%

same assay, conditions: Fasciola hepatica, 5 µM; mean ± SEM; read-out: % Ovicidal activity susceptible isolate

Row | Structure (SMILES) | killing at 5 µM [%]
48 | COC(=O)Nc1nc2ccc([S+]([O-])c3ccccc3)cc2[nH]1 (centres unmarked) [OXF, oxfendazole, reference compound] | > 98

system: Fasciola hepatica eggs (ABZ-resistant isolate); assay: Egg hatch test (EHT), ABZ-resistant isolate; assay type: cell-based; settings: 5 µM; mean ± SEM
From the text: F. hepatica eggs were recovered after washing the gallbladder of three naturally infected sheep belonging to a flock suspected to be resistant to ABZ. From these eggs, metacercariae were produced at the Centro de Investigaciones de Mabegondo (AGACAL, Xunta de Galicia, Spain) following a previous protocol. These metacercariae were used to infect eight sheep with a dose of 200 metacercariae. The infection was confirmed individually 3 months after the infection by coprological analysis using a sedimentation technique. At that point, sheep were randomly located in two groups of four animals: one treated with a therapeutic dose of ABZ (7.5 mg/kg) and the other one only with water, as control group. To assess the efficacy of ABZ in this isolate, all sheep were humanely euthanized by an intravenous administration of a lethal dose of sodium pentobarbital (Dolethal®, Vetoquinol, Spain) 2 weeks later for fluke recovery and counting. Afterwards, the in vivo efficacy of ABZ was calculated as the percentage of adult worm reduction compared with the untreated control. Additionally, the number of eggs per gram of feces (EPG) was estimated on the treatment day (mentioned as day 0) and 14 days later to determine drug efficacy by means of the fecal egg count reduction test (FECRT).
During the necropsy, gallbladders from sheep belonging to the untreated group were taken to collect the eggs and carry out the in vitro EHT, while flukes collected from livers were used to conduct the adult viability test (AVT).
Those BZDs with an activity higher than 80% at a concentration of 10 µM were also screened on eggs and adults from the ABZ resistant isolate.
as §1, §2

Row | Structure (SMILES) | % Ovicidal activity resistant isolate
49 | COC(=O)Nc1nc2ccc([S+]([O-])c3ccccc3)cc2[nH]1 (centres unmarked) [OXF, oxfendazole, reference compound] | 3% and 03.41 ± 02.08%

same assay, conditions: 10 µM as printed

Row | Structure (SMILES) | Ovicidal activity on the resistant isolate [%]
50 | COC(=O)Nc1nc2ccc([S+]([O-])c3ccccc3)cc2[nH]1 (centres unmarked) [OXF, oxfendazole, reference compound] | 3.5
